Laboratory results from US20260049072A1, “HETEROCYCLIC COMPOUND FOR INDUCING DEGRADATION OF MUTANT KRAS PROTEIN” (Astellas Pharma Inc., priority 2022, published 2026).
Where two headings read alike, the source gives them in different places.

Assays:
AsPC-1 cells = experiment: Non-anchorage-dependent cell growth inhibition (spheroid 3D culture), AsPC-1; format: cell-based; conditions: Homo sapiens, ASPC1, 144 h, read-out: AsPC-1 IC50
Description: (§1) Test Example 3: Evaluation of Non-Anchorage-Dependent Cell Growth Inhibitory Activity on Human KRAS G12V Mutant-Positive Pancreatic Cancer Line PA-TU-8902, Human KRAS G12D Mutant-Positive Pancreatic Cancer Line AsPC-1 or Human KRAS G12C Mutant-Positive Pancreatic Cancer Line MIA PaCa-2
(§2) The non-anchorage-dependent cell growth inhibitory activities of subject compounds were evaluated by spheroid 3D cell culture.
(§3) PA-TU-8902 cells, AsPC-1 cells or MIA PaCa-2 cells (RIKEN BRC, RCB2094) were seeded at 36 µL/well on a low-cell-adhesive round bottom 384-well plate (Prime Surface: from Sumitomo Bakelite) to give 5×10^2 cells per well. The PA-TU-8902 cells were under the same conditions as in Test Example 1-1, and the AsPC-1 cells were under the same conditions as in Test Example 1-2. For the MIA PaCa-2 cells, RPMI-1640 medium containing 10% fetal bovine serum was used in the presence of 5% CO2 at 37° C.
(§4) The next day, the subject compounds (6-9 points having final concentrations in the range of 3 μM to 0.3 nM) and DMSO, which was the solvent for the subject compounds, as a negative control were diluted 100-fold with a fresh medium and were each added at 4 μL per well. After culturing in the presence of 5% CO2 at 37° C. for six days, CellTiter-Glo 2.0 (from Promega) was added at 20 μL per well. After stirring with a plate mixer (from FINEPCR) at normal temperature for an hour, the luminescent signals were measured with ARVO X3 (from PerkinElmer).
(§5) With the signaling value in treatment with DMSO taken as 0% inhibition and with the signaling value in the medium alone without cells taken as 100% inhibition, the 50% inhibition values (IC50) were calculated by Sigmoid-Emax model nonlinear regression analysis.

RAS G12V = target: T1, RAS G12V (Homo sapiens, UniProt P01116, G12V); experiment: RAS G12V degradation activity, Cell ELISA, PA-TU-8902; format: cell-based; conditions: PA-TU-8902 cells, 24 hours, 100% = Example compound 17 at 1 μM; read-out: DC50 (RAS G12V 50% degradation value)
T1 construct: host or cells: PA-TU-8902 human pancreatic cancer cells
T1 sequence (P01116 1-188 isoform P01116-2 G12V): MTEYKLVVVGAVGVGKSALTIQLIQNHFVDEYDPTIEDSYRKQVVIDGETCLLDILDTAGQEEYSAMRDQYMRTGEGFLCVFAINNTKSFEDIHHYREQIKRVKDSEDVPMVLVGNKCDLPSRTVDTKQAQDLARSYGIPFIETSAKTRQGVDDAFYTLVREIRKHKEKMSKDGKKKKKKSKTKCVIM
Description: Test Example 1-1: Evaluation of RAS G12V Degradation Activity on Human KRAS G12V Mutant-Positive Pancreatic Cancer Line PA-TU-8902
The RAS G12V degradation activities of subject compounds were evaluated by measuring the expression levels of RAS G12V by a Cell ELISA method.
PA-TU-8902 cells (DSMZ, ACC 179) were seeded at 36 μL per well on a 384-well plate (from Greiner bio-one) to give 1.5×10^4 cells per well. As for the cell culture conditions, DMEM medium (from Sigma-Aldrich) containing 10% fetal bovine serum (from Cytiva) was used in the presence of 5% CO2 at 37° C.
The next day, the subject compounds (10 points having final concentrations in the range of 3 μM to 0.1 nM), Example compound 17 of a final concentration of 1 μM as a positive control and dimethyl sulfoxide (DMSO), which was the solvent for the subject compounds, as a negative control were diluted 100-fold with a fresh medium and were each added at 4 μL per well, followed by culturing for 24 hours.
The next day, the culture supernatant was removed, and a 4% paraformaldehyde phosphate buffer solution (from FUJIFILM Wako) was added at 20 μL per well. The plate was allowed to stand for 30 minutes at room temperature to thus immobilize the cells. Then, the supernatant was removed, and 0.1% Triton X-100 (from Amersham Biosciences)-containing Phosphate buffered saline (PBS) was added at 20 μL per well. After allowing the plate to stand at room temperature for 10 minutes, the supernatant was removed, and the wells were washed twice in total by adding PBS at 25 μL per well and removing the supernatant. The washing operations below were performed in the same manner. Next, the supernatant was removed, and 0.5% sodium dodecyl sulfate (SDS; from ThermoFisher Scientific)-containing PBS was added at 20 μL per well. After allowing the plate to stand at room temperature for 10 minutes, the plate was centrifuged to remove the supernatant. After washing with PBS, the supernatant was removed by centrifugation, and a blocking solution (PVDF Blocking Reagent for Can Get Signal; from TOYOBO) was added at 20 μL per well. After allowing the plate to stand for 30 minutes at room temperature, the supernatant was removed by centrifugation, and a solution obtained by diluting an anti-Ras (G12V Mutant Specific) antibody (Ras (G12V Mutant Specific) (D2H12) Rabbit mAb; from Cell Signaling Technology; 500-fold dilution) and an anti-3-actin antibody (Anti-beta Actin antibody; from Abcam; 5,000-fold dilution) with Can Get Signal Solution 2 (from TOYOBO) was added at 15 μL per well as primary antibodies. The plate was allowed to stand overnight at 4° C.
The next day, the supernatant was removed by centrifugation, and the plate was washed with PBS. The supernatant was removed by centrifugation, and a solution obtained by diluting an anti-rabbit IgG antibody (IRDye 800CW Goat anti-Rabbit IgG; from LI-COR Biosciences) and an anti-mouse IgG antibody (IRDye 680RD Donkey anti-Mouse IgG; from LI-COR Biosciences) 1,000-fold with Can Get Signal Solution 2 was added at 15 μL per well as secondary antibodies. After allowing the plate to stand at room temperature for an hour, the supernatant was removed by centrifugation, and the plate was washed with PBS. After removing the supernatant, the plate was dried as it was with air at room temperature for two hours or more, and the 700-nm and 800-nm fluorescent signals were measured with Aerius (from LI-COR Biosciences).
With the RAS G12V signaling value at the time of addition of DMSO corrected with the signaling value of 3-actin taken as 0% and with the RAS G12V signaling value at the time of addition of Example compound 17 of a final concentration of 1 μM taken as 100%, the RAS G12V degradation rates were calculated. The 50% degradation values (DC50) were calculated by Sigmoid-Emax model nonlinear regression analysis.

MIA PaCa-2 cells = experiment: Non-anchorage-dependent cell growth inhibition (spheroid 3D culture), MIA PaCa-2; format: cell-based; conditions: Homo sapiens, MIA PaCa-2, 144 h, read-out: MIA PaCa-2 IC50
Description: as §1, §2, §3, §4, §5

PA-TU-8902 cells = experiment: Non-anchorage-dependent cell growth inhibition (spheroid 3D culture), PA-TU-8902; format: cell-based, human; conditions: Homo sapiens, PaTu 8902, 144 h, read-out: PA-TU-8902 IC50
Description: as §1, §2, §3, §4, §5

[1] = KRAS G12D mutant-positive, 3D spheroid, six days, CellTiter-Glo 2.0
[2] = KRAS G12C mutant-positive, 3D spheroid, six days, CellTiter-Glo 2.0
[3] = KRAS G12V mutant-positive, 3D spheroid, six days, CellTiter-Glo 2.0

Row | Structure (SMILES) | IC50 (AsPC-1 cells) [µM] | DC50 (RAS G12V) [µM] | IC50 (MIA PaCa-2 cells) [µM] | IC50 (PA-TU-8902 cells) [µM] | IC50 (AsPC-1 cells; [1]) [µM] | IC50 (MIA PaCa-2 cells; [2]) [µM] | IC50 (PA-TU-8902 cells; [3]) [µM]
1 | CO[C@@H](C)COc1cc(OC2CN(C(=O)C3CN(C)C3)C2)c2cc(C3CC3)c(-c3c(C)c(F)cc4[nH]ncc34)c(OCc3ccc(-c4cn([C@H](C(=O)N5C[C@H](O)C[C@H]5C(=O)N[C@@H](CO)c5ccc(-n6cncn6)cc5)C(C)C)nn4)cc3)c2n1 (atropisomer, axis not shown) [Example 42] | 0.01 | 0.03 | 0.009 | 0.032 |  |  | 
2 | CO[C@@H](C)COc1nc(NC2CN(C(=O)N3CC(CN(C)C)C3)C2)c2cc(C3CC3)c(-c3c(C)c(F)cc4[nH]ncc34)c(OCc3ccc(-c4cn([C@H](C(=O)N5C[C@H](O)C[C@H]5C(=O)N[C@@H](CO)c5ccc(-c6scnc6C)cc5)C(C)C)nn4)cc3)c2n1 (atropisomer, axis not shown) [Example 25] |  | 0.014 |  |  | 0.014 | 0.016 | 0.041
3 | COC(C)(C)COc1cc(OC2CN(C(=O)N3CC(CN(C)C)C3)C2)c2cc(C3CC3)c(-c3c(C)c(F)cc4[nH]ncc34)c(OCc3ccc(-c4cn([C@H](C(=O)N5C[C@H](O)C[C@H]5C(=O)N[C@@H](CO)c5ccc(-n6cncn6)cc5)C(C)C)nn4)cc3)c2n1 (atropisomer, axis not shown) [Example 9] |  | 0.021 |  |  | 0.019 | 0.009 | 0.053
4 | CO[C@@H](C)COc1cc(OC2CN(C(=O)N3CC(CN(C)C)C3)C2)c2cc(C3CC3)c(-c3c(C)c(F)cc4[nH]ncc34)c(OCc3ccc(-c4cn([C@H](C(=O)N5C[C@H](O)C[C@H]5C(=O)N[C@@H](CO)c5ccc(-c6ocnc6C)cc5)C(C)C)nn4)cc3)c2n1 (atropisomer, axis not shown; (M)) [Example 6, (4R)-1-[(2S)-2-(4-{4-[({(7M)-6-cyclopropyl-4-[(1-{3-[(dimethylamino)methyl]azetidine-1-carbonyl}azetidin-3-yl)oxy]-7-(6-fluoro-5-methyl-1H-indazol-4-yl)-2-[(2S)-2-methoxypropoxy]quinolin-8-yl}oxy)methyl]phenyl}-1H-1,2,3-triazol-1-yl)-3-methylbutanoyl]-4-hydroxy-N-{(1R)-2-hydroxy-1-[4-(4-methyl-1,3-oxazol-5-yl)phenyl]ethyl}-L-prolinamide] |  | 0.022 |  |  | 0.014 | 0.007 | 0.032
5 | CO[C@@H](C)COc1cc(OC2CN(C(=O)NCCN(C)C)C2)c2cc(C3CC3)c(-c3c(C)c(F)cc4[nH]ncc34)c(OCc3ccc(-c4cn([C@H](C(=O)N5C[C@H](O)C[C@H]5C(=O)N[C@@H](CO)c5ccc(-n6cncn6)cc5)C(C)C)nn4)cc3)c2n1 (atropisomer, axis not shown; (M)) [Example 12, (4R)-1-[(2S)-2-(4-{4-[({(7M)-6-cyclopropyl-4-[(1-{[2-(dimethylamino)ethyl]carbamoyl}azetidin-3-yl)oxy]-7-(6-fluoro-5-methyl-1H-indazol-4-yl)-2-[(2S)-2-methoxypropoxy]quinolin-8-yl}oxy)methyl]phenyl}-1H-1,2,3-triazol-1-yl)-3-methylbutanoyl]-4-hydroxy-N-{(1R)-2-hydroxy-1-[4-(1H-1,2,4-triazol-1-yl)phenyl]ethyl}-L-prolinamide] |  | 0.037 |  |  | 0.017 | 0.02 | 0.036
6 | CO[C@@H](C)COc1nc(OC2CN(C(=O)NCCN(C)C)C2)c2cc(C3CC3)c(-c3c(C)c(F)cc4[nH]ncc34)c(OCc3ccc(-c4cn([C@H](C(=O)N5C[C@H](O)C[C@H]5C(=O)N[C@@H](CO)c5ccc(-c6scnc6C)cc5)C(C)C)nn4)cc3)c2n1 (atropisomer, axis not shown) [Example 17] |  | 0.041 |  |  | 0.016 | 0.01 | 0.046
7 | CO[C@@H](C)COc1nc(NC2CN(C(=O)O[C@H]3C[C@@H](N(C)C)C3)C2)c2cc(C3CC3)c(-c3c(C)c(F)cc4[nH]ncc34)c(OCc3ccc(-c4cn([C@H](C(=O)N5C[C@H](O)C[C@H]5C(=O)N[C@@H](CO)c5ccc(-c6scnc6C)cc5)C(C)C)nn4)cc3)c2n1 (atropisomer, axis not shown; (M)) [Example 11, (1s,3R)-3-(dimethylamino)cyclobutyl 3-({(7M)-6-cyclopropyl-7-(6-fluoro-5-methyl-1H-indazol-4-yl)-8-{[4-(1-{(2S)-1-[(2S,4R)-4-hydroxy-2-({(1R)-2-hydroxy-1-[4-(4-methyl-1,3-thiazol-5-yl)phenyl]ethyl}carbamoyl)pyrrolidin-1-yl]-3-methyl-1-oxobutan-2-yl}-1H-1,2,3-triazol-4-yl)phenyl]methoxy}-2-[(2S)-2-methoxypropoxy]quinazolin-4-yl}amino)azetidine-1-carboxylate] |  | 0.013 |  |  | 0.011 | 0.013 | 0.045
8 | CO[C@@H](C)COc1nc(OC2CN(C(=O)NCCN(C)C)C2)c2cc(C3CC3)c(-c3c(C)c(F)cc4[nH]ncc34)c(OCc3ccc(C(=O)N[C@H](C(=O)N4C[C@H](O)C[C@H]4C(=O)N[C@@H](CO)c4ccc(-c5scnc5C)cc4)C(C)C)cc3)c2n1 [Example 40, N-{4-[({(7M)-6-cyclopropyl-4-[(1-{[2-(dimethylamino)ethyl]carbamoyl}azetidin-3-yl)oxy]-7-(6-fluoro-5-methyl-1H-indazol-4-yl)-2-[(2S)-2-methoxypropoxy]quinazolin-8-yl}oxy)methyl]benzoyl}-L-valyl-(4R)-4-hydroxy-N-{(1R)-2-hydroxy-1-[4-(4-methyl-1,3-thiazol-5-yl)phenyl]ethyl}-L-prolinamide] | 0.062 | 0.076 | 0.02 | 0.1 |  |  | 
